Measurements from ChEMBL document CHEMBL1201862, “PubChem BioAssay data set” (2004).
The source made the active and inactive calls.

Assays:
[1] = target: T1, Replicative DNA helicase DnaB (Mycobacterium tuberculosis, UniProt P9WMR3); experiment: DnaB intein splicing inhibitors, dose response, biochemical, cell-free fluorescence (AID 449749); assay type: functional
T1 sequence (P9WMR3 whole entry): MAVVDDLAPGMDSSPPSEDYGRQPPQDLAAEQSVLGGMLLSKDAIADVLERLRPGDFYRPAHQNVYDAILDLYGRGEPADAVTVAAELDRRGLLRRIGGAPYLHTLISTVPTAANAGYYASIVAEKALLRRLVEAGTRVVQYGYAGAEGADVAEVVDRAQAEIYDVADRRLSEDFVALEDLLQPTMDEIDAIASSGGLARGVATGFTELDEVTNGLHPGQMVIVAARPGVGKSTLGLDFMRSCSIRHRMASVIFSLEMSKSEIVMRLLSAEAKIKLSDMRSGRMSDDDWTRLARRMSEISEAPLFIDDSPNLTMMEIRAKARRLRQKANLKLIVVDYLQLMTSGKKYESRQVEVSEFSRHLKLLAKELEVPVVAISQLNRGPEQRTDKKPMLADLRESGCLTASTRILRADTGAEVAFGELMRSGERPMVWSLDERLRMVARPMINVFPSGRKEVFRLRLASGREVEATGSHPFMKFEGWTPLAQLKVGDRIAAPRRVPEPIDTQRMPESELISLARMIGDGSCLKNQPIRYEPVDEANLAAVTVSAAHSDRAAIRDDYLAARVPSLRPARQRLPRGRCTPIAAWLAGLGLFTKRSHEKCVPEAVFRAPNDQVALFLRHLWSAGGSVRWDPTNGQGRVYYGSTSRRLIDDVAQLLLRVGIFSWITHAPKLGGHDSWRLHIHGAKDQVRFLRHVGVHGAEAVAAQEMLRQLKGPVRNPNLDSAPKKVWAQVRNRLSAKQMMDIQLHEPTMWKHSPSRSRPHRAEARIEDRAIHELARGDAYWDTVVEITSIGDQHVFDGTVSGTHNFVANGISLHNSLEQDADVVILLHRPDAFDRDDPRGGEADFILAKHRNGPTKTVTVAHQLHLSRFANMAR

[2] = target: T2, Protein RecA (Mycobacterium tuberculosis, UniProt P9WHJ3); experiment: Fluorescence Cell-Free Homogeneous Dose Retest to Identify Inhibitors of RecA-Intein Splicing Activity. [Related pubchem assays (depositor defined):AID2097, AID2223, AID489010, AID492950]; assay type: functional
T2 sequence (P9WHJ3 whole entry): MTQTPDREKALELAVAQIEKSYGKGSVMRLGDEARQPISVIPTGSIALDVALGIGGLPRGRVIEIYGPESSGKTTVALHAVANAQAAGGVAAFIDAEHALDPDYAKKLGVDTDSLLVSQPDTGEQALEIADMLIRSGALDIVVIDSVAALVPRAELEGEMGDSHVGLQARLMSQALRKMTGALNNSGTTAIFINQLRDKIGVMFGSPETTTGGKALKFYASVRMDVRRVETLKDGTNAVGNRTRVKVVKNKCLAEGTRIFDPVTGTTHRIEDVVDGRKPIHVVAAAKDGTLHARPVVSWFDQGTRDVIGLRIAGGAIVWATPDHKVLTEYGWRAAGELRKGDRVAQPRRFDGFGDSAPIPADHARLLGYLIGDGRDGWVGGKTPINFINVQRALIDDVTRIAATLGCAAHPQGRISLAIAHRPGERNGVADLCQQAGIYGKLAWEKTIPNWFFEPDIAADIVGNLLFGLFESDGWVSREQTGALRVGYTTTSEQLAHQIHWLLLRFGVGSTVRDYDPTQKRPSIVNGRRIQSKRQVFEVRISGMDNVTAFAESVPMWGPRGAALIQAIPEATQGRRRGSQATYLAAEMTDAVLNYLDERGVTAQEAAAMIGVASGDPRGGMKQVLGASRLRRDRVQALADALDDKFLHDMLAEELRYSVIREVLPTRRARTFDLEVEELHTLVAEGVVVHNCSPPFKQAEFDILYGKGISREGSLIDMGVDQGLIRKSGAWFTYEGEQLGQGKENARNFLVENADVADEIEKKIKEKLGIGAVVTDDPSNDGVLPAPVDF

[3] = target: T3, Protein skinhead-1 (Caenorhabditis elegans, UniProt P34707); assay type: functional
T3 sequence (P34707 whole entry): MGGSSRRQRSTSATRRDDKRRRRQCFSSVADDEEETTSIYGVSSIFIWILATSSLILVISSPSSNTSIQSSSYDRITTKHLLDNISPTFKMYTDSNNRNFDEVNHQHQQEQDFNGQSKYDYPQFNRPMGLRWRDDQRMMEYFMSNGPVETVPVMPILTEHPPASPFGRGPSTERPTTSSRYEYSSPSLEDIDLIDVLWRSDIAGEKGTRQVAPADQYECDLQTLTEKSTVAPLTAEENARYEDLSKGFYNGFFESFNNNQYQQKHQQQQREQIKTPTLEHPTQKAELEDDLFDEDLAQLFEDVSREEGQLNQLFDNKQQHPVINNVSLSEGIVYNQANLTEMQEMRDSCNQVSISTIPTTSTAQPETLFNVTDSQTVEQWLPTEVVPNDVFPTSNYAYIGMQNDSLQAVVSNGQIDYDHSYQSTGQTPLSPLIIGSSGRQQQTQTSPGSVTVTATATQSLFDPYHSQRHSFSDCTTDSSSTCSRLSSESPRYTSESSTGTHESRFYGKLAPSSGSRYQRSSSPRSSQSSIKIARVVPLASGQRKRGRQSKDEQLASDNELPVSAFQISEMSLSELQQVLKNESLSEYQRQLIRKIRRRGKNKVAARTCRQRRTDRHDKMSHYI

[4] = target: T4, Rac GTPase-activating protein 1 (Homo sapiens, UniProt Q9H0H5); experiment: MgcRacGAP GTPase-activating activity inhibitors, confirmation, biochemical, ADP Hunter fluorescence, primary and confirmatory (AID 624330); assay type: functional
T4 sequence (Q9H0H5 whole entry): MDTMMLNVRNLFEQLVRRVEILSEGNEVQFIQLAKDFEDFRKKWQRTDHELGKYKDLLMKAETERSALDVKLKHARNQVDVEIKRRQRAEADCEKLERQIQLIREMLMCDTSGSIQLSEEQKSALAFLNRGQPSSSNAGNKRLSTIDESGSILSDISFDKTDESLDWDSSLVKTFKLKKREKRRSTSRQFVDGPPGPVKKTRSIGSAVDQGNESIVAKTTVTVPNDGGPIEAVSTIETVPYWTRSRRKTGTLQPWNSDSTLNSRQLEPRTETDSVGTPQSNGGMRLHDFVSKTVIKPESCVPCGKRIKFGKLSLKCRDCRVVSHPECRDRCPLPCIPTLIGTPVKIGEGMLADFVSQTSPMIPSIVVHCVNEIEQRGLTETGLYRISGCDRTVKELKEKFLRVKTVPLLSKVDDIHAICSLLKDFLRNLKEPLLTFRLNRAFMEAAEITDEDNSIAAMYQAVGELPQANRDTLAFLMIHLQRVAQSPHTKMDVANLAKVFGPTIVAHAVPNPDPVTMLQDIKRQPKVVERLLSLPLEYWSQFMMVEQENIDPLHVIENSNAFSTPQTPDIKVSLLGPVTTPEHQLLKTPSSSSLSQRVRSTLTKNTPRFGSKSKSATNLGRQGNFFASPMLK

[5] = target: T5, Heat shock factor protein 1 (Mus musculus, UniProt P38532); experiment: HSF1 potentiators in luciferase reporter cells, confirmation, cell-based, NIH3T3, luminescence, dose retest (AID 435004); assay type: functional;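 note: stress induced by proteasome inhibitor MG132 added 30 min after compound; luciferase reporter driven by HSF1 response element in NIH3T3 cells; actives raise luminescence as potentiators of the MG132 stress response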
T5 sequence (P38532 whole entry): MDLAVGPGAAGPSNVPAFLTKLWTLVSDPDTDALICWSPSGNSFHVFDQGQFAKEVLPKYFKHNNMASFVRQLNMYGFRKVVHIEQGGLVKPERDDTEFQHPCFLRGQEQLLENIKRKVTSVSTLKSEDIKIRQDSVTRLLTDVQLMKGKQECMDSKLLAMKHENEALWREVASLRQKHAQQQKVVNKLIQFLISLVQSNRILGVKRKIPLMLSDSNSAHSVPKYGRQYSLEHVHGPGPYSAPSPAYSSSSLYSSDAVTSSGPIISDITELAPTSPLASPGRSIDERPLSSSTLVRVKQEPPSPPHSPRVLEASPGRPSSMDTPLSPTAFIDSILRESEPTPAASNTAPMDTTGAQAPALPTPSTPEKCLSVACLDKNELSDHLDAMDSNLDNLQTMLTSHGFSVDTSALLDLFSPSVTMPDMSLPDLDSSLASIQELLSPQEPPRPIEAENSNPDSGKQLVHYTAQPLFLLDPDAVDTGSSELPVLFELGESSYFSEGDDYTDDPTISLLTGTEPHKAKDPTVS

[6] = target: Large T antigen (Simian virus 40, UniProt P03070); assay type: functional, Betapolyomavirus macacae;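 note: Confirmatory-stage PubChem screen for compounds that inhibit SV40 T antigen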
[7] = target: T6, Corticotropin-releasing factor receptor 2/Corticotropin-releasing factor-binding protein (Homo sapiens, UniProt P24387+Q13324); experiment: activators of CRF receptor 2 with binding protein – uHTS hits, confirmation (AID 602473); assay type: functional; conditions: read-out: EC50_Mean
T6 sequence (Q13324 whole entry): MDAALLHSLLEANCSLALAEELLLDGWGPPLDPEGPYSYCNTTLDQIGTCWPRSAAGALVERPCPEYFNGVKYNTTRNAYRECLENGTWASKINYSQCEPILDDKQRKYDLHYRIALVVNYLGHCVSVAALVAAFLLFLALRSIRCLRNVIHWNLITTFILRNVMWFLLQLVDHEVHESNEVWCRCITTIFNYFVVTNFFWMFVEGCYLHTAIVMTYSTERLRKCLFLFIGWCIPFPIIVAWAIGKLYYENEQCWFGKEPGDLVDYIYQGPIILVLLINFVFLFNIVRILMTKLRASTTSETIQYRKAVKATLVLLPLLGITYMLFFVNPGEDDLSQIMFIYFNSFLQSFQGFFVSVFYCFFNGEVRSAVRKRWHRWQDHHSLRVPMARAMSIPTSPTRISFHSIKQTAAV
T6 sequence (P24387 whole entry): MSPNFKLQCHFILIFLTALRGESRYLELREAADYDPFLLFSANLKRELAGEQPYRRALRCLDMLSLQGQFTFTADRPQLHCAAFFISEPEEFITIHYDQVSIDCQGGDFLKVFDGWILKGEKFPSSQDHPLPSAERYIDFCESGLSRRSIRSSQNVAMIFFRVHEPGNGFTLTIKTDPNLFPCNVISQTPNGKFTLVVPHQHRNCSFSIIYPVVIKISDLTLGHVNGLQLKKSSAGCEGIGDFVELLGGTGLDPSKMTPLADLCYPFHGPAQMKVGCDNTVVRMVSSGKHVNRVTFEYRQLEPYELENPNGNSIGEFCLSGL

[8] = target: FAD-linked sulfhydryl oxidase ALR (Homo sapiens, UniProt P55789); experiment: inhibitors of human ALR sulfhydryl oxidase, dose response, biochemical, H2O2 detection, luminescence, cherry-pick (AID 493248)
Sequence of FAD-linked sulfhydryl oxidase ALR (P55789 whole entry): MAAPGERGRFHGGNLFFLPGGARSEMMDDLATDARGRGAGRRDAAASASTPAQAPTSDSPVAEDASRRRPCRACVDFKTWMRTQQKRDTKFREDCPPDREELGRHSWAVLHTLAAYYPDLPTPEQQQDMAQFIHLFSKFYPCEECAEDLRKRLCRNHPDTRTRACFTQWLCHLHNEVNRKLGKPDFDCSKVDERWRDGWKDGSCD

Sequence of Large T antigen (P03070 whole entry): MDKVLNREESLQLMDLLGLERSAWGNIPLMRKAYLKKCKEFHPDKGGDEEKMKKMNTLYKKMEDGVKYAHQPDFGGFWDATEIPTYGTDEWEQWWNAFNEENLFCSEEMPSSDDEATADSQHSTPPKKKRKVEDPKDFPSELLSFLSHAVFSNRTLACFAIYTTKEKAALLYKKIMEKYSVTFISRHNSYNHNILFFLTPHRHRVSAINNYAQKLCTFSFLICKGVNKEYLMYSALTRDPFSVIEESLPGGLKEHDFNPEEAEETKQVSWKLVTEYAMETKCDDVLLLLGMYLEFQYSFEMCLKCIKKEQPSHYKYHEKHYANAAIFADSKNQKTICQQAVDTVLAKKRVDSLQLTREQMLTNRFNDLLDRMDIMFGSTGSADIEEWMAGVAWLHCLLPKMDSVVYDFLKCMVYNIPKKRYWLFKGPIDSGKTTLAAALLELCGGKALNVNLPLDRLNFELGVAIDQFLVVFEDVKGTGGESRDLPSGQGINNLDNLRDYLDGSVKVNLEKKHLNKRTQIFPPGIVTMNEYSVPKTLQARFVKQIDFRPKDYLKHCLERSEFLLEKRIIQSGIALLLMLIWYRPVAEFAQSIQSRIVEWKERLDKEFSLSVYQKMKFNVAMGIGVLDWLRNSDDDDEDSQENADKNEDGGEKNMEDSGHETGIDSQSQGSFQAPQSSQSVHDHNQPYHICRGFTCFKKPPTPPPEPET

COc1ccc(OC)c(C(c2c(C)n[nH]c2O)c2c(C)n[nH]c2O)c1
AC50 [1]: 0.296 µM (active) | EC50 [2]: 0.211 µM (active)

Cc1c(-c2csc(N)n2)c2ccccc2n1C
IC50 [3]: > 100 µM (inactive)

NC(CSS(=O)(=O)O)=NCCC12CC3CC(CC(O)(C3)C1)C2
IC50 [4]: 142 µM (active)

NSc1nc(N)c2nc(-c3ccccc3)c(-c3ccccc3)nc2n1
IC50 [4]: 99.2 µM (active)

CC(C)(C)NC(=O)C(c1cccs1)N(CC1CCCO1)C(=O)c1ccc(-c2ccccc2)[nH]1 (stereo not given)
AC50 [1]: 37.9 µM (active) | EC50 [2]: 169 µM (active)

CN(C)c1ccc(NC(=O)c2ccncc2)c2ccccc12
AC50 [1]: 66.5 µM (active) | EC50 [2]: 45.4 µM (active)

COc1ccc(CN2C(=O)NC(=O)/C(=C\NNC(=O)c3ccccc3O)C2=O)cc1
AC50 [1]: 2.69 µM (active) | EC50 [2]: 32.2 µM (active)

Cc1nn(-c2cccc(Cl)c2)c2c1C(c1ccncc1)C(C#N)=C(N)O2 (stereo not given)
EC50 [5]: > 260 µM (inactive) | AC50 [1]: 9.1 µM (active) | EC50 [2]: 7.71 µM (active)

Cc1ccc2sc(NC(=O)c3cccc(N4C(=O)CCC4=O)c3)nc2c1C
IC50 [3]: > 100 µM (inactive)

CC(NS(=O)(=O)c1ccc(Cl)cc1)C(=O)OCC(=O)Nc1ccc(N(C)C)cc1 (stereo not given)
IC50 [4]: 65.1 µM (active)

O=C(c1c[nH]c(C(=O)C(Cl)(Cl)Cl)c1)c1ccccc1F
AC50 [1]: 12.6 µM (active) | EC50 [2]: 7.39 µM (active)

FC(F)(F)c1ccc(-c2csc(-c3ccno3)n2)cc1
IC50 [3]: 23.1 µM (active)

COc1ccc(NC2CCCN(C(=O)c3ccc(C)c(N4CCNC4=O)c3)C2)cc1 (stereo not given)
IC50 [4]: 129 µM (active)

COc1ccc(CN2CCN(C(=O)CC(C)C)CC2)cc1OC
IC50 [4]: 161 µM (active)

O=C(NC1C(=O)NNC1c1ccccc1)c1ccccc1 (stereo not given)
EC50 [5]: 246 µM (active) | AC50 [1]: 8.8 µM (active) | EC50 [2]: 4.83 µM (active)

COC(=O)CCSc1cc(NCCOC(C)=O)c([N+](=O)[O-])c2nonc12
AC50 [1]: 37.5 µM (active) | EC50 [2]: 4.63 µM (active)

Cc1ccc(C/N=C/c2[nH]c3ccc(Br)c(Cl)c3c2O)cc1
AC50 [1]: > 380 µM (inactive) | EC50 [2]: 1.43 µM (active)

COc1cc(/C=N/NC(=O)c2nc(C)cc(C)n2)ccc1O
IC50 [6]: 39.5 µM (active) | EC50 [7]: > 53 µM (inactive) | IC50 [4]: 35.3 µM (active)

O=C(N/N=C/c1ccc(N2CCOCC2)s1)c1ccc(O)cc1
IC50 [4]: 23.5 µM (active)

COc1cc(/C=N/NC(=O)CCn2nnc3ccccc32)ccc1O
AC50 [8]: 0.236 µM (active) | IC50 [6]: 8.58 µM (active) | IC50 [4]: 58.7 µM (active)
